≈ marks a conversion by molar mass, not a printed value.

For `Cc1ccc2ccc3ccccc3c2c1`, the logP is 5.15. Still for that read-out and setting: as for `ClC1(Cl)C2(Cl)C3(Cl)C4(Cl)C(Cl)(Cl)C5(Cl)C3(Cl)C1(Cl)C5(Cl)C24Cl` (centres undefined), the figure is 6.89; as for `Nc1ncc2ncn(COCCO)c2n1`, -1.08; as for `CC(=O)N(C)S(=O)(=O)c1ccc(C)cc1`, 1.73. Take `CCCCNC(=S)NCCCC`: the log partition coefficient (logP) was 2.75. `c1ccc2sc(SN(C3CCCCC3)C3CCCCC3)nc2c1` displayed a logP of 4.8 and a solubility of 0.000163 mM (≈ 0.0564 µg/mL). For the compound `O=C1CC[C@@]2(O)[C@H]3Cc4ccc(O)c5c4[C@@]2(CCN3CC2CC2)[C@H]1O5`, the logP was found to be 1.92. The compound `Oc1c(Cl)ccc(Cl)c1Cl` showed a solubility of 2.28 mM (≈ 450 µg/mL). As for `CCCCCCOCCOCCO`, the logP came to 1.7. Turning to `NC(=O)N=NC(N)=O`, the logP was -1.7.

Consider `Nc1nc(=O)n([C@@H]2CS[C@H](CO)O2)cc1F`, for which the logP is -0.43. On the same count and under the same terms, as for `CCC(=O)OC`, the figure is 0.84; as for `CC(Cc1ccc(C(C)(C)C)cc1)CN1C[C@@H](C)O[C@@H](C)C1` (single isomer, unassigned), 4.93. Take `O=C1NCCC2CNC(=O)C12` (centres undefined): the logP was -1.95.

In the case of `N#CCC#N`, the logP is -0.6. Compound `CC(C)C(C#N)c1ccc([N+](=O)[O-])cc1` (centres undefined) had a logP of 2.8. Still for that read-out and setting: as for `Cc1cccc(O[Si]23OCCN(CCO2)CCO3)c1`, the figure is 0.15; as for `Brc1cc(Br)c(Br)c(-c2c(Br)c(Br)cc(Br)c2Br)c1Br`, 5.5. `CN(C(=O)C(Cl)Cl)c1ccc(O)cc1` came in with a logP of 1.78. In turn, `CC(=O)c1c(C)c([N+](=O)[O-])c(C(C)(C)C)c([N+](=O)[O-])c1C` yielded a lipophilicity (logP) of 4.3 and a solubility of 0.00646 mM (≈ 1.9 µg/mL). In turn, `CN1CC=C(c2ccc(N)cc2)CC1` had a logP of 1.48.

Turning to `CN1CC=C(c2ccncc2)CC1`, the logP was found to be 1.25. `CCCCCCCCCCCCN1CC(C(=O)O)CC1=O` (centres undefined) came in with a logP of 2.6.

The compound `CSc1ccc(C(N)=S)cc1` gave a logP of 2.01.

Take `OCc1c(F)cccc1F`: the logP was determined as 1.12.

As to `CCC/N=C(N)/N=C(\N)Nc1ccc(Cl)cc1`, the logP worked out at 2.63. In the case of `c1ccc(Cn2cncn2)cc1`, the logP was 0.92. The same measure, in the same setting: the same measure for `CCCCCCC(C)O` (centres undefined): 2.9. Same read-out and setting: as for `COc1ccc2c(c1)OCC1(O)c3cc4c(cc3OC21)OCO4` (centres undefined), the figure is 2.58. Regarding `CC[n+]1c(-c2ccccc2)c2cc(N)ccc2c2ccc(N)cc21.[Br-]`, the solubility came out at 50.7 mM. `CS(=O)CCCOc1ccc2ccccc2c1` (centres undefined) yielded a logP of 2.42.

For the compound `Cc1cc(Cc2c(Cl)cccc2Cl)c(Cl)cc1Cl`, the logP worked out at 6.73.

`O=C1CCC(=O)N1c1cc(Cl)cc(Cl)c1` registered a logP of 1.4. The compound `CCN(CC)P(=O)(N(CC)CC)N(CC)CC` came in with a logP of 2.53. The compound `Oc1ccc(C2CNCCc3c2cc(O)c(O)c3Cl)cc1` (centres undefined) gave a logP of 2.39. On the same count and under the same terms, as for `Cc1cc(Cl)c(C(C)C)cc1Cl`, the figure is 5.6. Compound `c1cnc2c(c1)cc1ccc3cccc4ccc2c1c34` registered a lipophilicity (logP) of 5.53.

`COc1cc(Cl)c(Cl)c(Cl)c1Cl` came in with a logP of 4.51. Take `CSc1ccc(C=C(C#N)C#N)o1`: the logP amounted to 2.45.

As for `Clc1ccc(C2OC2c2ccccc2)cc1` (centres undefined), the logP amounted to 4.54. The compound `CCCC(C)C=O` (centres undefined) had a solubility of 41.9 mM (≈ 4200 µg/mL). In turn, `O=c1nc[nH]c2c1ncn2[C@@H]1O[C@H](CO)C[C@@H]1F` gave a logP of -1.21. In turn, `Nc1nc(NC(=O)C(F)(F)C(F)(F)C(F)(F)F)n[nH]1` came in with a logP of 1.54.

Regarding `CCC(=O)OCN1C(=O)NC(c2ccccc2)(c2ccccc2)C1=O`, the log partition coefficient (logP) was 2.8. Turning to `Cc1ncc(CO)c(C=O)c1O.Cl`, the solubility came to 2460 mM. For `Cc1cc(O)cc(C)c1Cl`, the logP was found to be 3.27. Regarding `ClC1=CC2(Cl)C3C(Cl)C(Cl)C(Cl)C3C1(Cl)C2(Cl)Cl` (centres undefined), the logP was 5.91. The compound `Brc1cc2oc3cc(Br)c(Br)cc3c2cc1Br` came in with a logP of 6.1 and a solubility of 0.000145 mM (≈ 0.07 µg/mL). Compound `CC(C)n1ccc(=O)c(O)c1` came in with a logP of -0.02. In the case of `O=C(NCCN1CCC(n2c(=O)[nH]c3cc(Cl)ccc32)CC1)c1ccc(F)cc1`, the logP came out at 4.63. `CCCCCCCCCCOC(=O)c1ccccc1C(=O)OCCCCCCCCCC` showed a logP of 9.05. The compound `CNCCC=C1c2ccccc2CCc2ccccc21` gave a logP of 4.51. Compound `O=C(CCl)N1CCOCC1` returned a log partition coefficient (logP) of -0.6. In the case of `CCCCCCNC(=S)NC`, the logP turned out to be 2.31. `CC(=O)OC(c1ccc(Cl)c(Cl)c1)C(Cl)(Cl)Cl` (centres undefined) yielded a logP of 4.92. In the case of `C[C@H](CCC(=O)O)[C@H]1CC[C@H]2[C@@H]3CC[C@@H]4C[C@H](O)CC[C@]4(C)[C@H]3C[C@H](O)[C@]12C`, the logP was 3.5.

`O=Cc1ccc(F)cc1` returned a logP of 1.54. The compound `NCCc1nc(-c2ccccc2)cs1` displayed a lipophilicity (logP) of 2.22. Turning to `Cc1c(Cl)cccc1[N+](=O)[O-]`, the logP is 3.09.

Turning to `NC(=O)c1cccc2ccccc12`, the lipophilicity (logP) turned out to be 1.88.

Consider `COc1ccc(-c2cc(C#N)c(Cl)nc2C)cc1`, for which the logP was 3.38.

Usually logP stands for the decadic logarithm of the partition coefficient of the neutral form, usually between octanol and water. Higher therefore signals higher lipophilicity. One may read the solubility as the dissolved amount per volume that the medium holds. The low end stands for little dissolved substance, the high end for much dissolved substance.

(Values after the OPERA property sets (Mansouri et al. 2018).)
